This passage reports TGI results from PubChem BioAssay (NCI).

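All cell lines were grown in 96-well plates and treated with compound for 48 hours. The concentration for full growth arrest is given as TGI.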

Common to all, as to test: inhibition of tumour cell growth, NCI panel, 48 h
Assay [1] deals with SK-MEL-5 melanoma.
For assay [2], the system named is UACC-257 melanoma.
The test system of assay [3] is RXF 393 renal.
Assay [4] has as its system MCF7 breast.
Assay [5] relates to M14 melanoma.
For assay [6], the system named is K-562 leukemia.
In assay [7] the test system is NCI-H23 lung.
Assay [8] concerns HS 578T breast.
The test system of assay [9] is SK-MEL-2 melanoma.
The subject of assay [10] is 786-0 renal.
Assay [11] relates to SW-620 colon.
The test system of assay [12] is HOP-92 NSCLC.
Assay [13] relates to DU-145 prostate.
Assay [14] has as its system HOP-62 NSCLC.
Assay [15] deals with NCI/ADR-RES ovarian.
The test system of assay [16] is COLO 205 colon.
Assay [17] relates to SN12C renal.
For assay [18], the system named is HL-60(TB) leukemia.
Assay [19] has as its system LOX IMVI melanoma.
The test system of assay [20] is SF-539 CNS.

In the case of `CCOC(=O)c1sc2nc(SC)nc3c2c1N=CN3c1ccccc1Cl`, the TGI was above 100 µM in assay [1]; above 100 µM in assay [2]; 68.6 µM in assay [3]; above 100 µM in assay [4]; above 100 µM in assay [5]; above 100 µM in assay [6]. Also, the TGI in assay [7] is above 100 µM; in assay [8], 52.3 µM; in [9], above 100 µM; in assay [10] it was 33.6 µM; in assay [11], above 100 µM; in [12], 74.5 µM. Also, the TGI in [13] is above 100 µM; in assay [14] it was 32.6 µM; in [15], above 100 µM; in [16], above 100 µM; in assay [17], above 100 µM; in assay [18], above 100 µM. For the same compound, the TGI in assay [19] is above 100 µM.

For `OCC1OC(Oc2cc(O)cc(/C=C\c3ccc(O)cc3)c2)C(O)C(O)C1O` (stereo not given), the TGI in assay [20], in [1], in assay [2], in assay [3], in assay [4] and in [6] was above 100 µM each time. Also, the TGI in assay [8], in [9], in assay [10], in [11], in [12] and in assay [13] was above 100 µM throughout. The TGI in assay [14], in assay [15], in assay [17], in assay [18] and in assay [19] was above 100 µM throughout.

For the compound `C[C@]12CCC(=O)C=C1CC[C@@H]1[C@@H]2CC[C@]2(C)C(=O)[C@H](n3ccnc3)C[C@@H]12`, the TGI in [20], in assay [1], in assay [2], in assay [3], in assay [4] and in assay [5] was above 100 µM in each case. Moreover, the TGI in assay [6], in [7], in assay [8], in assay [9], in assay [10] and in [11] was above 100 µM each time. The TGI in assay [12], in [13], in assay [15], in assay [16], in [17] and in assay [18] was above 100 µM throughout. In assay [19], the TGI is above 100 µM.

As to `O=CN1CCN(C(=O)c2cc(Cl)cc(Cl)c2)C1=S`, the TGI came to 39.7 µM in assay [20]; 32.3 µM in [2]; 30.6 µM in assay [3]; 20.8 µM in assay [4]; 29.2 µM in [5]; 97.5 µM in assay [6]. Further, the TGI in assay [7] was determined as 32.5 µM; in [8], 71.4 µM; in assay [9], 33 µM; in [10] it was 15.7 µM; in assay [11] it was 49.3 µM; in [12], 31.9 µM. Moreover, the TGI in [13] is 37.5 µM; in [14], 29.7 µM; in assay [15], 80.7 µM; in assay [16] it was 33.8 µM; in [17] it was 31 µM; in assay [18], 29.7 µM. The compound also yielded a TGI in [19] of 22.3 µM.

Turning to `Cc1ccc2c(=O)cc(-c3cccc4ccccc34)[nH]c2n1`, the TGI is 0.0897 µM in [1]; above 100 µM in [2]; above 100 µM in assay [3]; above 43.1 µM in assay [4]; above 100 µM in assay [5]; above 36.8 µM in assay [6]. Besides, the TGI in [7] is above 100 µM; in [8], above 91.5 µM; in assay [9] it was 2.47 µM; in assay [10], above 79.2 µM; in assay [11] it was above 100 µM; in assay [12], 32 µM. Besides, the TGI in [13] was above 74.7 µM; in [14], above 100 µM; in assay [15], above 100 µM; in [16], 0.676 µM; in assay [17] it was above 100 µM; in assay [18] it was 0.0318 µM. The compound also had a TGI in assay [19] of 9.5 µM.

Consider `COC(=O)C1=NN2c3ccccc3C(=O)OCCC2(C)C1` (stereo not given), for which the TGI in assay [20], in assay [1], in assay [3], in [4], in [6] and in [7] was above 100 µM each time. The TGI in [8], in assay [9], in assay [10], in [11], in [12] and in assay [13] was above 100 µM each time. For the same compound, the TGI in assay [14], in assay [15], in [16], in [17], in [18] and in [19] was above 100 µM throughout.

On to `Cc1cn(C2CC(O)C(Cn3cc(Cn4ncc(=O)[nH]c4=O)nn3)O2)c(=O)[nH]c1=O` (stereo not given), for which the TGI in assay [20], in assay [1], in assay [2], in assay [3], in [4] and in [5] was above 100 µM throughout. The TGI in assay [7], in assay [8], in assay [9], in assay [10], in [11] and in assay [12] was above 100 µM in each case. Also, the TGI in assay [13], in [14], in assay [15], in [16], in assay [17] and in assay [18] was above 100 µM throughout. For the same compound, in assay [19], the TGI was above 100 µM.
